# “And” between values parts separate entries of the source, which are not always exact repeats. Equal values may be shown once.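 In this assay, cells in 96-well plates receive the compound at five concentrations for 48 hours. Endpoints are linearly interpolated between the surrounding concentrations. GI50 marks 50% less growth. TGI: concentration producing complete growth inhibition.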
# Assays:
# Assay in all cases: NCI anticancer screen, dose series, 48 h
# HS 578T breast = test system: HS 578T breast
# MDA-MB-435 = test system: MDA-MB-435
# NCI/ADR-RES ovarian = test system: NCI/ADR-RES ovarian
# PC-3 prostate = test system: PC-3 prostate
# T-47D breast = test system: T-47D breast
Compound,GI50 (HS 578T breast) [µM],TGI (HS 578T breast) [µM],GI50 (MDA-MB-435) [µM],TGI (MDA-MB-435),GI50 (NCI/ADR-RES ovarian),TGI (NCI/ADR-RES ovarian),GI50 (PC-3 prostate) [µM],TGI (PC-3 prostate),GI50 (T-47D breast),TGI (T-47D breast) [µM]
NC(=O)c1ccc(I)c([N+](=O)[O-])c1,> 66.2,> 100,> 75.6,> 100 µM,> 100 µM,> 100 µM,> 100,> 100 µM,35.8 µM,> 100
Cc1cccc2c(=O)c3c(sc12)c(NCCCN)nc1ccccc13,–,–,1.69,3.17 µM,–,–,1.37,3.04 µM,1.5 µM,3.44
COc1cc(/C=C/C(=O)c2ccccc2O)ccc1OCCCOc1cc2c(cc1OC)C(=O)N1CCC[C@H]1C=N2,0.054,0.284,–,–,0.345 µM,16.8 µM,0.0541,7.51 µM,0.152 µM,–
COC(=O)[C@@H](C)C[C@H](Cc1ccc(F)cc1)NC(=O)c1csc([C@@H](C[C@H](C(C)C)N(C)C(=O)[C@@H](NC(=O)[C@H]2CCCCN2C)C2CC2)OC(C)=O)n1,0.307,> 7.76,0.0194,0.109 µM,6.88 µM,> 25 µM,0.415,> 25 µM,> 25 µM,> 25
O=C1NN(C(=O)c2ccccc2)C(c2ccc(Cl)c(Cl)c2)=C/C1=C\c1ccccc1[N+](=O)[O-],2.46,> 6.75,> 6.75,> 6.75 µM,2.29 µM,> 6.75 µM,1.52,> 6.75 µM,2.25 µM,> 6.75
CCCCNC(=O)Oc1ccc(/C(=C(\C)c2ccc(OC)cc2)c2ccc(OCCN3CCCCC3)cc2)cc1,2.14,4.82,1.78,3.67 µM,3.67 µM,19.3 µM,2.35,7.03 µM,1.24 µM,6.37
CCC(CO)Nc1nc(NCc2ccccc2)c2n[nH]c(C(C)C)c2n1 (stereo not given),11.6,34.3,10,24 µM,16.7 µM,39.2 µM,7.01,31.5 µM,16 µM,41.2
C/C(COc1ccc2oc(-c3ccccc3)cc(=O)c2c1)=N\O,–,–,0.556,2.94 µM,36 µM,> 100 µM,26.6,70.5 µM,16.2 µM,> 100
O=c1cc(-c2ccccc2)oc2c(O)c(O)ccc12,37.2,> 100,13,> 100 µM,4.04 µM,67.5 µM,7.74,> 100 µM,16.9 µM,> 100
N[C@@H](Cc1c[nH]c2ccccc12)C(=O)NC1CCN(Cc2c[nH]c3ccc(Cl)cc23)CC1,7.63,24.5,5.99,18.7 µM,65.3 µM,> 100 µM,6.01,19.9 µM,4.65 µM,20
COc1ccc2c(c1)/C(=C\c1c(-c3ccccc3)nc3sccn13)C(=O)N2,–,–,0.04,0.287 µM,1.09 µM,3.27 µM,9.55,> 35.6 µM,8.33 µM,30.9
C=C(C)[C@@H]1C/C=C(/COC(C)=O)CC[C@H]2O[C@@]2(C)CC/C=C(\C)CC1,> 100,> 100,> 100,> 100 µM,> 100 µM,> 100 µM,> 100,> 100 µM,> 100 µM,> 100
C=C[C@@H]1CCC/C=C/[C@@H]2C[C@H](O)C[C@H]2[C@H](O)/C=C/C(=O)O1,0.477,> 100,0.435,> 100 µM,0.365 µM,11.6 µM,0.785,> 100 µM,1.21 µM,4.28
O=C(Nc1ccc(Cl)cc1)c1cc(NCc2cc(O)ccc2O)ccc1O,9.12,55.7,12,27.2 µM,4.43 µM,62.9 µM,1.89,4.92 µM,2.05 µM,5.24
COc1ccc(-c2oc3ncnc(N)c3c2-c2ccc(NC(=O)Nc3cc(C(F)(F)F)ccc3F)cc2)cc1,0.833,4.67,0.871,3.95 µM,1.17 µM,6.24 µM,1.94,11.4 µM,1.94 µM,10.1
CC1(C)N=C(N)N=C(N)N1c1cccc(CCCCc2ccc(Cl)c(S(=O)(=O)F)c2)c1,12.6,35.9,0.445,15.7 µM,> 100 µM,> 100 µM,–,–,13.8 µM,30.9
Cc1cc(C)c([I+]c2c(C)cc(C)cc2C)c(C)c1,0.795,2.68,0.327,1.24 µM,6.54 µM,26.8 µM,0.259,1.14 µM,0.406 µM,2.19
CO[C@H]1/C=C/O[C@@]2(C)Oc3c(C)c(O)c4c(O)c(c(/C=N/N5C(C)CN(Cc6ccc(C#N)cc6)CC5C)c(O)c4c3C2=O)NC(=O)/C(C)=C\C=C\[C@H](C)[C@H](O)[C@@H](C)[C@@H](O)[C@@H](C)[C@H](OC(C)=O)[C@@H]1C (stereo not given in full),8.83,20.3,8.58,23.5 µM,11.7 µM,46 µM,–,–,6.71 µM,26.2
COc1cc(OCCCN2CCCC2)ccc1Nc1ncc(Cl)c(Nc2ccccc2P(C)(C)=O)n1,2.22,10,1.65,> 42.6 µM,12.6 µM,> 77.4 µM,4.11,49.6 µM,8.71 µM,54.3
OCC#Cc1ccccc1C#Cc1ccc(C#Cc2ccccc2C#CCO)cc1,24.3,58.7,> 100,> 100 µM,55.2 µM,> 100 µM,30.7,> 100 µM,> 100 µM,> 100
[Mn+3].[O-][Cl+3]([O-])([O-])O.[O-]c1ccccc1C=NCCN1CC1.[O-]c1ccccc1C=NCCN1CC1,33.6,> 100,37,> 100 µM,19.3 µM,49.8 µM,19.9,> 100 µM,20.3 µM,> 100
COc1ccc(NC(=O)c2ccc(C(F)(F)F)nc2Nc2ccc(Cl)cc2C)cc1Cl,6.9,28.3,7.99,25.9 µM,3.17 µM,14.9 µM,3.53,12.1 µM,2.58 µM,28.9
CCOc1ccc(Nc2ccnc3cc(Cl)ccc23)cc1,38.6,> 100,> 100,> 100 µM,> 100 µM,> 100 µM,> 100,> 100 µM,> 100 µM,> 100
CCCCCCCCCCCCCCCCCC1=NC(C)(C)CN1C(C)(C)CO,1.62,3.98,1.58,3.42 µM,–,–,1.85,4.81 µM,2.3 µM,5.55
O=C1/C(=C/c2ccc(Cl)cc2)N=C(c2ccccc2)N1c1cc(C(F)(F)F)ccc1Cl,21.4,66.5,22.7,71.4 µM,22.3 µM,77.6 µM,20.8,71.8 µM,22.4 µM,> 100
COc1ccc2cc(C(=O)N3CCC([C@@H](C)C(=O)NCc4ccc5c(c4)OCO5)CC3)[nH]c2c1,27.9,> 100,51.2,> 100 µM,> 100 µM,> 100 µM,> 100,> 100 µM,> 100 µM,> 100
COc1nc2c(c(=O)n1C)CN(c1ccccc1)C(=O)CN2C,13,73.4,> 100,> 100 µM,72.2 µM,> 100 µM,20,> 100 µM,11.1 µM,> 100
COC(=O)[C@@H](C)C[C@H](Cc1ccccc1)NC(=O)c1csc([C@@H](C[C@H](C(C)C)N(C)C(=O)[C@@H](NC(=O)[C@H]2CCCCN2C)c2ccc(F)cc2)OC(C)=O)n1,–,> 100,0.00081,0.00514 µM and 0.0274 µM,1.81 µM and 3.8 µM,25 µM and > 100 µM,–,25 µM and 28.3 µM,0.00826 µM,–
COc1ccc2c(c1)C(=O)/C(=C/c1ccc(O)cc1)O2,28.6,> 86.3,6.73,20.5 µM,26.1 µM,> 83.6 µM,9.48,24.7 µM,7.27 µM,37.6
C[C@]1(c2nc3c(C(N)=O)cccc3[nH]2)CCCN1,> 100,> 100,> 100,> 100 µM,> 100 µM,> 100 µM,> 100,> 100 µM,68.4 µM and > 100 µM,> 100

# — PubChem BioAssay (NCI)
